pIC50: −log10 of the molar value. Counter-ions that a name gives are not always drawn.
What was measured:
[1] = biological target: His-tagged human recombinant kinase full-length Akt2 (Homo sapiens (Human), UniProt P31751); assay: Akt2 kinase assay (TR-FRET); assay type: biochemical; details: 10 μM ATP; median
Text: Akt2 inhibitory activity of compounds of the present invention was quantified employing the Akt2 TR-FRET assay as described in the following paragraphs.
(§1) His-tagged human recombinant kinase full-length Akt2 expressed in insect cells and activated by PDK1 was purchased form Invitrogen (part number PV 3975). As substrate for the kinase reaction the biotinylated peptide biotin-Ahx-[…] (C-terminus in amide form) was used which can be purchased e.g. from the company Biosynthan GmbH (Berlin-Buch, Germany).
(§2) For the assay 50 nl of a 100 fold concentrated solution of the test compound in DMSO was pipetted into a black low volume 384 well microtiter plate (Greiner Bio-One, Frickenhausen, Germany), 2 μl of a solution of Akt2 in assay buffer [50 mM TRIS/HCl pH 7.5, 5 mM MgCl2, 1 mM dithiothreitol, 0.02% (v/v) Triton X-100 (Sigma)] were added and the mixture was incubated for 15 min at 22° C. to allow pre-binding of the test compounds to the enzyme before the start of the kinase reaction. Then the kinase reaction was started by the addition of 3 μl of a solution of adenosine-tri-phosphate (ATP, 16.7 μM=>final conc. in the 5 μl assay volume is 10 μM) and substrate (1.67 μM=>final conc. in the 5 μl assay volume is 1 μM) in assay buffer and the resulting mixture was incubated for a reaction time of 60 min at 22° C. The concentration of Akt2 in the assay was adjusted depending of the activity of the enzyme lot and was chosen appropriate to have the assay in the linear range, typical enzyme concentrations were in the range of about 0.2 ng/μl (final conc. in the 5 μl assay volume).
(§3) The reaction was stopped by the addition of 5 μl of a solution of HTRF detection reagents (200 nM streptavidine-XL665 [Cisbio] and 1.5 nM anti-phosho-Serine antibody [Millipore, cat. #35-001] and 0.75 nM LANCE Eu-W 1024 labeled anti-mouse IgG antibody [Perkin Elmer]) in an aqueous EDTA-solution (100 mM EDTA, 0.1%/w/v\ bovine serum albumin in 50 mM HEPES/NaOH pH 7.5).
(§4) The resulting mixture was incubated 1 h at 22° C. to allow the binding of the biotinylated phosphorylated peptide to the streptavidine-XL665 and the antibodies. Subsequently the amount of phosphorylated substrate was evaluated by measurement of the resonance energy transfer from the anti-mouse-IgG-Eu-Chelate to the streptavidine-XL665. Therefore, the fluorescence emissions at 620 nm and 665 nm after excitation at 350 nm was measured in a TR-FRET reader, e.g. a Rubystar (BMG Labtechnologies, Offenburg, Germany) or a Viewlux (Perkin-Elmer). The ratio of the emissions at 665 nm and at […] was taken as the measure for the amount of phosphorylated substrate. The data were normalised (enzyme reaction without inhibitor=0% inhibition, all other assay components but no enzyme=100% inhibition).

[2] = test system: phospho-AKT at S473 in KPL4 breast tumour cell line; assay: Cellular p-AKT1/2/3-S473 assay; assay type: cell-based; details: KPL4 cells, 2 hours treatment; median; read-out: pAKT-S743 median IC50
Description: The molecular mechanism of action was investigated in a set of experiments to assess the inhibition of the PI3K-AKT-mTOR pathway in responsive cell lines such as KPL4 breast tumour cell line (PIK3CAH1047R, HER2O/E and hormone independent). The phospho-substrates of PI3K-AKT-mTOR axis were used as the read-outs to reflect pathway inhibition. Cells were seeded at 60-80% confluency per well in 96-well cell culture plates. After overnight incubation at 37° C. 5% CO2, cells were treated with compounds and vehicle at 37° C. for 2 hours. […] All measurements where at least done in duplicates and confirmed by independent repetition.
Alternatively pAKT-S473 was measured using the “Akt Duplex” of the MULTI-SPOT® Assay System (Fa. Meso Scale Discovery, Cat# N41100B-1) following manufacturers instructions. Each assay used 20 μg of protein extract and measured total AKT and p-AKT content simultaneously in one well. All measurements where at least done in duplicates and confirmed by independent repetition. Values for P-AKT are expressed as percentage of P-AKT level compared to total-AKT content of the extracts.

[3] = biological target: His-tagged human recombinant kinase full-length Akt1 (Homo sapiens (Human), UniProt P31749); assay: Akt1 kinase assay (TR-FRET); assay type: biochemical; details: 10 μM ATP; median
His-tagged human recombinant kinase full-length Akt1, sequence (P31749 whole entry): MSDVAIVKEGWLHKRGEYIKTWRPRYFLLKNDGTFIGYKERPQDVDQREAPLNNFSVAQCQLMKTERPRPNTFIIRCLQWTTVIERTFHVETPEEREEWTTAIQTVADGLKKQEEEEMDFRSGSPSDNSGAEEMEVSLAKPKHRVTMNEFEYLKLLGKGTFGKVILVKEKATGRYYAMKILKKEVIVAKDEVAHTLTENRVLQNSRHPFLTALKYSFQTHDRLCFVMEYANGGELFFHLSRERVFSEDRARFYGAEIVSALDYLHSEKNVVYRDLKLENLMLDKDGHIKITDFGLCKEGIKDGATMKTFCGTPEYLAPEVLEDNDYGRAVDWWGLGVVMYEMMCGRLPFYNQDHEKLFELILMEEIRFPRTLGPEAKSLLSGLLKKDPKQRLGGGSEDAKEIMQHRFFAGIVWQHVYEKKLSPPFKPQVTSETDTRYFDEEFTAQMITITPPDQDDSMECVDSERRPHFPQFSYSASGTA
Text: as §1, with “Akt1 inhibitory activity of compounds of the present invention was quantified employing the Akt1 TR-FRET assay as described in the following paragraphs. His-tagged” for “His-tagged”, “Akt1” for “Akt2”, “cells” for “cells and activated by PDK1”, “3599).” for “3975).”
as §2, with “Akt1” for “Akt2”, “0.05” for “0.2”
as §3, with “0.1% (w/v)” for “0.1%/w/v\”
as §4, with “HTRF” for “TR-FRET”

KPL-4 cells = assay: Tumor cell proliferation assay (CellTiter-Glo); assay type: cell-based; details: KPL4; 72 h drug exposure
Description: Compounds were tested in a cell-based assay that measures the capacity of the compounds to inhibit tumour cell proliferation following a 72 h drug exposure. Cell viability is determined using CellTiter-Glow® (CTG, Promega, cat# G757112/3). The CellTiter-Glo® Luminescent Cell Viability Assay is a homogeneous method to determine the number of viable cells in culture. Detection is based on using the luciferase reaction to measure the amount of ATP from viable cells. The amount of ATP in cells correlates with cell viability. Within minutes after a loss of membrane integrity, cells lose the ability to synthesize ATP, and endogenous ATPases destroy any remaining ATP; thus the levels of ATP fall precipitously.
Cells were plated at 3000-5000 cells/well (depending on the cell lines) in 90 μL growth medium on MTPs (Corning; #3603, black plate, clear flat bottom). For each cell line assayed, cells were plated onto a separate plate for determination of […] at t=0 hour and t=72 hour time points. Following overnight incubation at 37° C., chemiluminescence values for the t=0 samples were determined after adding 10 μl medium and 100 μl CTG solution according to manufacture protocol. Plates for the t=72 hour time points were treated with compounds diluted into growth medium at ten times final concentration added in 10 μL to the cell culture plate. Cells were then incubated for 72 hours at 37° C. Chemiluminescence values for the t=72 hour samples were determined. For data analysis, briefly, data from 24 h plate where used to reflect 100% inhibition of growth (“Ci”) and DMSO control for uninhibited growth (“C0”) and analyzed using MTS software package for IC50 and Hill coefficient. Experiments were controlled using a reference compound as standard.

His-tagged human recombinant kinase full-length Akt2, sequence (P31751 whole entry): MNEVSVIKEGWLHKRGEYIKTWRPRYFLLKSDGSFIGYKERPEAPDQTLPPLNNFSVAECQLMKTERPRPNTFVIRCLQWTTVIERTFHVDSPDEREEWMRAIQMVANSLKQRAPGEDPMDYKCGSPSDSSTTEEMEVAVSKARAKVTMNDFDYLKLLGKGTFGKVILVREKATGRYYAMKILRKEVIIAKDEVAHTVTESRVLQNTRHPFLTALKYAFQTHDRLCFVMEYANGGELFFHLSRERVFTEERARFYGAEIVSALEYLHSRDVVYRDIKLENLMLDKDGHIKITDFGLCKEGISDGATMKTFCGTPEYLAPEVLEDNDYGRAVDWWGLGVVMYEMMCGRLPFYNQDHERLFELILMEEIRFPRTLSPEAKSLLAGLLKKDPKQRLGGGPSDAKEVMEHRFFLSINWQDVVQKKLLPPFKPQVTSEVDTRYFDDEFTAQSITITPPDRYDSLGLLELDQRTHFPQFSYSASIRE

SMILES	pIC50 [1]	pIC50 [2]	pIC50 [3]	pIC50 (KPL-4 cells)
NC1(c2ccc(-c3nn4c(-c5ccc(F)c(CO)c5)cnc4cc3-c3ccccc3)cc2)CCC1 [Example 4-9, (5-{6-[4-(1-Amino-cyclobutyl)-phenyl]-7-phenyl-imidazo[1,2-b]pyridazin-3-yl}-2-fluorophenyl)-methanol hydrochloride]	7.04	7.40	8.05	5.81
COc1cncc(-c2cnc3cc(-c4ccccc4)c(-c4ccc(C5(N)CCC5)cc4)nn23)c1 [Example 4-18, 1-{4-[3-(5-Methoxypyridin-3-yl)-7-phenyl-imidazo[1,2-b]pyridazin-6-yl]-phenyl}-cyclobutylamine]	7.34		8.30	5.74
Cc1nc2cc(-c3ccccc3)c(-c3ccc(C4(N)CCC4)cc3)nn2c1-c1cn[nH]c1 [Example 5-2, 1-{4-[2-Methyl-7-phenyl-3-(1H-pyrazol-4-yl)-imidazo[1,2-b]pyridazin-6-yl]-phenyl}-cyclobutylamine]		5.00	5.32	5.56
NC1(c2ccc(-c3nn4c(-c5ccn[nH]5)cnc4cc3-c3ccccc3)cc2)CCC1 [Example 4-15, 1-{4-[7-Phenyl-3-(2H-pyrazol-3-yl)-imidazo[1,2-b]pyridazin-6-yl]-phenyl}-cyclobutylamine]	7.15		7.96	5.85
Cc1cnc2cc(-c3ccccc3)c(-c3ccc(C4(N)CCC4)cc3)nn12 [Example 2-0, 1-[4-(3-Methyl-7-phenyl-imidazo[1,2-b]pyridazin-6-yl)-phenyl]-cyclobutylamine]	5.76		6.36	
COC(=O)c1cccc(-c2cnc3cc(-c4ccccc4)c(-c4ccc(C5(N)CCC5)cc4)nn23)c1 [Example 4-2, 3-{6-[4-(1-Amino-cyclobutyl)-phenyl]-7-phenyl-imidazo[1,2-b]pyridazin-3-yl}-benzoic acid methyl ester]	7.24		8.40	5.59
NC1(c2ccc(-c3nn4c(-c5ccc6cn[nH]c6c5)cnc4cc3-c3ccccc3)cc2)CCC1 [Example 4-16, 1-{4-[3-(1H-indazol-6-yl)-7-phenyl-imidazo[1,2-b]pyridazin-6-yl]-phenyl}-cyclobutylamine]	7.66		7.96	5.29
Cc1ccc(-c2cnc3cc(-c4ccccc4)c(-c4ccc(C5(N)CCC5)cc4)nn23)cc1 [Example 4-4, 1-[4-(7-Phenyl-3-p-tolyl-imidazo[1,2-b]pyridazin-6-yl)-phenyl]-cyclobutylamine]	6.56		7.36	5.22
NC1(c2ccc(-c3nn4ccnc4cc3-c3ccccc3)cc2)CCC1 [Example 1-0, 1-[4-(7-Phenyl-imidazo[1,2-b]pyridazin-6-yl)-phenyl]-cyclobutylamine]	5.84		6.61	5.45
CCc1c(C)nc2cc(-c3ccccc3)c(-c3ccc(C4(N)CCC4)cc3)nn12 [Example 13-0, 1-[4-(3-Ethyl-2-methyl-7-phenyl-imidazo[1,2-b]pyridazin-6-yl)-phenyl]-cyclobutylamine]		5.00		5.61
N#Cc1ccc(-c2cnc3cc(-c4ccccc4)c(-c4ccc(C5(N)CCC5)cc4)nn23)cc1 [Example 4-1, 4-{6-[4-(1-Amino-cyclobutyl)-phenyl]-7-phenyl-imidazo[1,2-b]pyridazin-3-yl}-benzonitrile]	6.87		6.89	5.69
CS(=O)(=O)c1ccc(-c2cnc3cc(-c4ccccc4)c(-c4ccc(C5(N)CCC5)cc4)nn23)cc1 [Example 4-0, 1-{4-[3-(4-Methanesulfonylphenyl)-7-phenyl-imidazo[1,2-b]pyridazin-6-yl]-phenyl}-cyclobutylamine]	6.56		6.96	5.73
NC1(c2ccc(-c3nn4c(-c5ccc(F)cc5)cnc4cc3-c3ccccc3)cc2)CCC1 [Example 4-3, 1-{4-[3-(4-Fluorophenyl)-7-phenyl-imidazo[1,2-b]pyridazin-6-yl]-phenyl}-cyclobutylamine]	7.09		7.44	5.72
